# Measurements: publication PMC12040169 (PLOS Biology, 2025)
# Test: in vitro
# Conditions: human, hela cells, % viability
row,SMILES,"viability at 28.5 h, 10 µM"
1,COc1ccc(CNC(=O)[C@H]2C=CCN2C(=O)c2ccco2)cc1 [CBK284321],71.9%
2,CC(C)[C@@H](N)Cn1nnc2ccccc21 [CBK284323],82.7%
3,COc1ccc(C(=O)[C@H]2CCCN(C(=O)c3ccco3)C2)cc1 [CBK284327],99.7%
4,O=C(c1ccc(F)cc1)[C@H]1CCCN(C(=O)c2ccco2)C1 [CBK284328],80.7%
5,O=C(c1ccccc1F)[C@H]1CCCN(C(=O)c2cc(C3CC3)n[nH]2)C1 [CBK284330],80%
6,Cn1ccc(C(=O)N2CCC[C@H](C(=O)c3ccc(F)cc3)C2)n1 [CBK284333],88.3%
7,Cc1noc(C)c1C(=O)N1CCC[C@H](C(=O)c2ccc(F)cc2)C1 [CBK284334],81.7%
8,CC(C)C(=O)N[C@@H](C)Cn1nc(-c2cccs2)oc1=O [CBK284335],88.3%
9,CC(C)CC(=O)N[C@@H](C)Cn1nc(-c2cccs2)oc1=O [CBK284336],82.4%
10,C[C@@H](Cn1nc(-c2cccs2)oc1=O)NC(=O)C1CCCC1 [CBK284337],86.5%
11,O=C(NC1CCCCC1)[C@@H]1C=CCN1C(=O)c1cccs1 [CBK284338],95.8%
12,O=C1Nc2c(cnn2-c2ccc(Cl)cc2)C2=NCCN12 [CBK284341],93.1%
13,Cc1ccc(-n2ncc3c2NC(=O)N2CCN=C32)cc1 [CBK284345],85.5%
14,O=C(c1ccccc1F)N1CCC(n2c(=O)oc3ccccc32)CC1 [CBK284346],90.1%
15,O=C(c1ccco1)N1CCC(n2c(=O)oc3ccccc32)CC1 [CBK284350],92.8%
16,CC(C)NC(=O)C1CC2CCC1CC21NC(=O)c2ccccc2O1 (stereo not shown) [CBK284353],83.5%
17,Cc1cc(C(=O)N2C[C@H]3CC[C@](O)(c4ccc(F)cc4)[C@H]3C2)on1 [CBK284354],92.4%
18,O=C(c1cc(F)cc(F)c1)N1CCC(O)(c2cccnc2F)CC1 [CBK284361],92.7%
19,O=C(Cc1cccc(F)c1)N1CCC(O)(c2cccnc2F)CC1 [CBK284362],90.5%
20,Cc1cc(-c2cc(=O)n(Cc3ccc(F)cc3)nc2C2CC2)on1 [CBK284364],98.2%
21,Cc1cc(-c2cc(=O)n(Cc3ccccc3)nc2C2CC2)on1 [CBK284365],86.2%
22,OC1(c2cccnc2F)CCN(Cc2ccc(F)cc2F)CC1 [CBK284369],82.6%
23,OC1(c2cccnc2F)CCN(Cc2ccc(F)c(F)c2)CC1 [CBK284370],90%

row,SMILES,"viability at 28.5 h, 10 µM"
1,OC1(c2cccnc2F)CCN(Cc2cc(F)ccc2F)CC1 [CBK284371],83.6%
2,OC1(c2cccnc2F)CCN(Cc2cccc(F)c2)CC1 [CBK284373],85.5%
3,CCn1cncc1CN1CC2CCCC(O)(c3ccc(C)cc3)C2C1 (stereo not shown) [CBK284374],90%
4,Cc1cc2ncc3c(n2n1)CC1CCC3N1Cc1ccc(F)c(F)c1 (stereo not shown) [CBK284378],90.9%
5,Cc1cc2ncc3c(n2n1)CC1CCC3N1C(=O)CCc1ccco1 (stereo not shown) [CBK284380],78.2%
6,CCC(=O)N1C2CCC1c1cnc3cc(-c4ccco4)nn3c1C2 (stereo not shown) [CBK284384],92.7%
7,O=C(CN1C(=O)N2CCCN=C2c2ccc(Cl)cc21)N1CCCC1 [CBK284387],78.7%
8,O=C(CN1C(=O)N2CCCN=C2c2ccc(Cl)cc21)NC1CC1 [CBK284388],89%
9,CCCNC(=O)CN1C(=O)N2CCCN=C2c2ccc(Cl)cc21 [CBK284389],82.8%
10,CC(C)NC(=O)CN1C(=O)N2CCCN=C2c2ccc(Cl)cc21 [CBK284390],96.5%
11,O=C(CN1C(=O)N2CCCN=C2c2ccccc21)NC1CCCCC1 [CBK284396],88.8%
12,O=C(CN1C(=O)N2CCCN=C2c2ccccc21)N1CCCCCC1 [CBK284399],96.4%
13,CCOC(=O)CN1C(=O)N2CCCN=C2c2ccc(Cl)cc21 [CBK284401],77.8%
14,COC(=O)CN1C(=O)N2CCCN=C2c2ccc(Cl)cc21 [CBK284402],89.8%
15,CCCNC(=O)CN1C(=O)N2CCCN=C2c2ccccc21 [CBK284405],86%
16,Cc1nc2c(c(=O)[nH]1)CC[C@@H]1CN(C(=O)c3cccs3)C[C@H]21 [CBK284406],88.7%
17,Cc1nc2c(c(=O)[nH]1)CC[C@@H]1CN(C(=O)c3occ4ccccc34)C[C@H]21 [CBK284408],101%
18,Cc1nc2c(c(=O)[nH]1)CC[C@@H]1CN(C(=O)c3ccccc3F)C[C@H]21 [CBK284410],92.7%
19,Cc1cc2ncc3c(n2n1)CC1CCC3N1Cc1ccc(C)o1 (stereo not shown) [CBK284412],88.9%
20,Cc1nc2c(c(=O)[nH]1)CC[C@@H]1CN(C(=O)Cc3cccc(F)c3)C[C@H]21 [CBK284413],80.4%
21,Cc1cc2ncc3c(n2n1)CC1CCC3N1C(=O)c1cccs1 (stereo not shown) [CBK284415],103%
22,Cc1ccc(-n2ncc3c2NC(=O)N2CCCN=C32)cc1 [CBK284416],110%
23,Cc1nc2c(c(=O)[nH]1)CC[C@@H]1CN(C(=O)c3cc(F)cc(F)c3)C[C@H]21 [CBK284418],101%

row,SMILES,"viability at 28.5 h, 10 µM"
1,O=C(CN1C(=O)N2CCCN=C2c2ccccc21)N1CCCC1 [CBK284419],88.4%
2,O=C(C1CCCC1)N1C2CCC1CC(O)(c1cccnc1F)C2 (stereo not shown) [CBK284421],88.4%
3,O=C(c1cccc(F)c1)N1C2CCC1CC(O)(c1cccnc1F)C2 (stereo not shown) [CBK284422],104%
4,Cc1ccc(C(=O)N2C3CCC2CC(O)(c2cccnc2F)C3)o1 (stereo not shown) [CBK284423],104%
5,Cn1nccc1C(=O)C1CCN(C(=O)c2cccs2)CC1 [CBK284424],95.1%
6,Cn1nccc1C(=O)C1CCN(C(=O)c2ccccc2F)CC1 [CBK284425],94.5%
7,Cc1cc(C(=O)N2CCC(C(=O)c3ccnn3C)CC2)sc1C [CBK284428],89.3%
8,c1ccc2c3c([nH]c2c1)C12CCN(CC1)C(C1CCOC1)N2CC3 (stereo not shown) [CBK284433],88.2%
9,c1ccc2c3c([nH]c2c1)C12CCN(CC1)C(c1ccncc1)N2CC3 (stereo not shown) [CBK284434],88.5%
10,Cc1cccc(C2N3CCC4(CC3)c3[nH]c5ccccc5c3CCN24)n1 (stereo not shown) [CBK284435],90.5%
11,Fc1ccc2[nH]c3c(c2c1)CCN1C(c2cccnc2)N2CCC31CC2 (stereo not shown) [CBK284436],87.6%
12,Fc1ccc2[nH]c3c(c2c1)CCN1C(c2ccncc2)N2CCC31CC2 (stereo not shown) [CBK284437],78.6%
13,O=C1NC2(CCC(=O)N(Cc3ccccc3)CC2)Oc2ccccc21 (stereo not shown) [CBK284438],91.6%
14,CC(C)NC(=O)C1CC2CCC1(C)C[C@]21NC(=O)c2ccccc2N1 (stereo partly shown) [CBK284444],88.7%
15,CC12CCC(CC1C(=O)NC1CC1)[C@]1(C2)NC(=O)c2ccccc2N1 (stereo partly shown) [CBK284445],92.2%
16,O=C1NC2(CC3CCC2N3Cc2ccco2)Nc2ccccc21 (stereo not shown) [CBK284446],91.8%
17,CC(=O)N1CC2(CCN(C(=O)c3ccco3)CC2)Nc2ccccc21 [CBK284447],95.5%
18,O=C(C1CC1)N1C2CCC1Cn1c(nc3ccccc3c1=O)C2 (stereo not shown) [CBK284451],92.2%
19,O=C1N[C@@]2(CC3CCC2CC3C(=O)NC2CC2)Nc2ccccc21 (stereo partly shown) [CBK284454],85.9%
20,CN1CCC2(CCC1=O)CC(N)c1ccccc1O2 (stereo not shown) [CBK284456],103%
21,Cc1cnn(CC(=O)N2CCC(c3cc4ncccc4[nH]3)CC2)c1 [CBK284458],77.2%
22,CN(C)c1ccc(C(=O)N2CCC(c3cc4ncccc4[nH]3)CC2)cc1 [CBK284459],93.3%
23,Cc1cc(-c2ccc(=O)n(C3CCN(C(=O)C4CC4)CC3)n2)c(C)o1 [CBK284462],87.2%

row,SMILES,"viability at 28.5 h, 10 µM"
1,CC(C)(C)OC(=O)N1CCCC2(CCCN(C(=O)c3ccco3)C2)C1 (stereo not shown) [CBK284463],94.7%
2,COc1ccccc1CC(=O)N1CCC(c2onc3c2CCC3)CC1 [CBK284464],99.2%
3,CC1CCc2nn(CCNC(=O)Cc3cccs3)c(=O)cc2C1 (stereo not shown) [CBK284465],88.8%
4,O=C1CCN(C(=O)c2ccccn2)CCN1Cc1cccc(F)c1 [CBK284467],90.5%
5,Cc1ccc2c(c1)C(=O)CC1(CC3CCC1N3C(=O)C(C)C)O2 (stereo not shown) [CBK284468],87.1%
6,CN1C(=O)C(C)(C)Oc2ccc(C(O)c3ccco3)cc21 (stereo not shown) [CBK284469],89.8%
7,COc1cc2c(cc1OC)C1c3ccccc3NC(=O)N1CC2 (stereo not shown) [CBK284471],88%
8,Cc1ccc2c(c1)oc(=O)n2CCNC(=O)c1cccs1 [CBK284472],99.9%
9,Cc1c(CN2CCCC(n3cnc4cc(F)ccc43)C2)cnn1C (stereo not shown) [CBK284478],89.9%
10,CC1CCc2nn(CCNC(=O)Cc3ccc(F)cc3)c(=O)cc2C1 (stereo not shown) [CBK284485],92.5%
11,O=C(c1ccco1)N1CCC(c2onc3c2CCCCC3)CC1 [CBK284486],91%
12,O=C(C1CCCO1)N1CCC(c2onc3c2CCCCC3)CC1 (stereo not shown) [CBK284487],98.4%
13,Cc1ccc(C2Nc3ccccc3C3=NCCCN32)o1 (stereo not shown) [CBK284488],103%
14,CC(=O)Nc1nc(-c2cccs2)c(-c2cc(C)no2)s1 [CBK284493],98.9%
15,COc1ccc(-n2ncc3c2CCCN(C(=O)C2CC2)C3)cc1 [CBK284498],84.3%
16,Cc1ccc(CC(=O)N2CCc3nn(C(C)C)c(=O)cc3C2)cc1 [CBK284499],93.6%
17,Cc1cc(-c2cc3nc(C)c(C)c(O)n3n2)c(C)o1 [CBK284500],90.4%
18,COc1ccc(-n2ncc3c2CCCN(C(=O)C2CCCC2)C3)cc1 [CBK284501],78%
19,O=C(O)c1ccc(-n2ccnc2)c(C#Cc2ccccc2)c1 [CBK284502],89.5%
20,O=C(C1CC1)N1CCC2(CC1)Nc1cccnc1-n1cccc12 [CBK284504],107%
21,O=C(c1ccco1)N1CCC2(CC1)Nc1cccnc1-n1cccc12 [CBK284506],85.3%
22,CCC(CC)C(=O)N1CCC2(CC1)Nc1cccnc1-n1cccc12 [CBK284508],80.7%
